Blank lines part the entries; values can stand above or below the molecule they belong to. Residues, ends and D or L forms follow the SMILES beside them. *: point of attachment. Cbz = O=C(OCc1ccccc1)*; CH2F = FC*
Legend:
RAW264.7 cells [1] = assay: Luminex screening assays (bead-based multiplex kits); format: cell-based; details: 100 nM KRS proteins or KRS exosomes 5 ug/ml; 12 hr
Procedure: RAW264.7 cells were incubated in 12-well plate using DMEM media containing 10% FBS and 1% antibiotic for 12 hr, and starved in serum starvation media for 2 hr. KRS proteins (WT, ▴N12 each) and KRS exosomes (5 ug) in different amounts were respectively added to the media. After 12 hr, conditioned media were collected, and spun down through centrifugation at 3,000 g for 10 min. For multiplex assay, premixed beads for TNF-alpha, mCRG-2, IL-6, mIL-lbeta, mIL-12, mIL-10, MMP9, INF-gamma, mMIP3a, and CXCL10 were purchased from R&D Science, and used according to the manufacturer's protocol. Each sample were analyzed by BioRad Bioplex 200 system and software.

RAW264.7 cells [2] = assay: Wound healing assay; format: cell-based; details: RAW 264.7 monolayer; 100 nM KRS proteins or KRS exosomes 0.05, 0.5, 5 ug; 12 hr
Procedure: RAW264.7 cells were dispensed on the coverslip, and grown to >95% confluency. Subsequently, the RAW 264.7 monolayer was scratched to create wounds, and then the wounds were treated with 100 nM KRS proteins (WT, ▴N12) or KRS exosomes (0.05, 0.5, 5 ug) in their respective concentrations, followed by incubation for 12 hr. The cell morphology of cells was observed using microscopy.

RAW264.7 cells [3] = assay: TNF-alpha secretion ELISA assay; format: cell-based; details: RAW 264.7 cells; 100 nM KRS proteins or KRS exosomes 0.05, 0.5, 5 ug
Procedure: RAW264.7 cells (2×10^4) were incubated in 24-well plate containing DMEM supplemented with 10% FBS and 1% antibiotic for 12 hr, and starved in serum starvation media for 2 hr. 100 nM KRS protein (WT, ▴N12 each) and KRS exosomes (0.05, 0.5, 5 ug) were added, followed by treatment for 6 hr. Thereafter, cell media were collected by centrifugation at 3,000 g for 5 min. TNF-alpha secreted from the cells was detected using the TNF-alpha ELISA kit (Pharmingen, BD Science) according to the manufacturer's protocol.

Cytokine activity of KRS = details: WT compared with N-terminus truncated KRS
HCT116 cells [4] = assay: KRS secretion test (TCA precipitation, western blot); format: cell-based; details: for KRS secretion after caspase inhibitor treatment: HCT116 cells, serum starvation media, inhibitor 14 uM, 12 hr, anti-KRS antibody; for secretion of KRS variant compared with WT: myc-tagged variant transfected into HCT116 cells, serum starvation 12 hr, anti-myc antibody
Procedure: HCT116 cells were incubated in RPMI media containing 10% FBS (Hyclone), and were grown to 60% confluency on 60-mm dish. The cells were washed twice with PBS, incubated in serum-free RPMI media, and treated with 10 ng/ml TNF-α for 12 hr. The supernatant of the cell culture liquid was cautiously collected, followed by centrifugation at 500 g for 10 min. The supernatant thus obtained was again centrifuged at 10,000 g for 30 min, thereby removing membrane organelles. Then, 12% TCA was added to the supernatant, followed by culture at 4° C. for 12 hr, so the supernatant was subjected to precipitation treatment. After the precipitation treatment, the supernatant was centrifuged at 18,000 g for 15 min, and the upper part was then discarded and the remaining pellets were neutralized with 100 mM HEPES (pH 8.0), and then 5× sample buffer was added to perform separation using SDS-PAGE. The products separated by SDS-PAGE were western blotted using anti-KRS antibody.

KRS and syntenin-1 [5] = assay: Bimolecular fluorescence complementation (BiFC) assay; format: cell-based; details: KRS-VN173 and syntenin-1-VC155 transfected cells, serum starvation 4 hr
Procedure: KRS-VN173 plasmid and syntenin-1-VC155 plasmid were all transduced in HCT116 cells, and the cells were incubated in starvation condition or serum-free condition for 4 hr. The HCT116 cells were located on 9-mm coverslip, fixed using 4% paraformaldehyde, and washed shortly with cool PBS. The cells were incubated in 5% BSA blocking buffer for 1 hr, and DAPI stained for 10 min. The cells were washed six times with cool PBS five times for 5 min for each time, and then mounted on slide glass. Thereafter, the samples were observed using confocal laser scanning microscope A1 (Nikon).

KRS and syntenin-1 [6] = assay: KRS-syntenin-1 interaction by immunoprecipitation and western blot; format: cell-based; details: for binding of KRS variant with syntenin-1 compared with WT: myc-tagged variant transfected into cells, immunoprecipitation and western blot
Procedure: For immunoprecipitation, the cells were lysed at 4° C. in 50 mM HEPES (pH 7.4) buffer containing 150 mM NaCl, 0.5% NP-40, 2 mM EDTA, 5% glycerol and protease inhibiting agent (Calbiochem, San Diego, Calif., USA). Protein extracts were cultured together with protein-specific antibodies thereagainst with stirring at 4° C. In addition, protein G agarose was added. 4 hr after the addition of the protein G agarose, precipitate samples were obtained by centrifugation. The precipitate samples were washed three times for 5 min using cool lysis buffer. The precipitates were separated by SDS-PAGE.

HCT116 cells [7] = assay: KRS exosome secretion (exosomes isolated at 100,000 g, western blot); format: cell-based; details: for exosome secretion of KRS variant compared with WT: myc-tagged variant transfected into HCT116 cells, serum starvation 12 hr
Procedure: HCT116 cells were incubated for a predetermined period of time in each treatment condition (especially, serum-starvation condition), and then the media were separated and consecutively centrifuged. Centrifugation was conducted three times at 500 g (10 min), 10,000 g (30 min), and 100,000 g (90 min) to form microvesicle pellets. The amount of microvesicle proteins was determined by using Bradford assay.

HCT116 cells [8] = assay: KRS cleavage in cells (GFP-KRS, western blot with anti-GFP antibody); format: cell-based
Procedure: The cells were lysed with 50 mM Tris-HCl (pH 7.4) buffer containing 150 mM NaCl, 10 mM NaF, 12 mM beta-glycerophosphate, 1 mM EDTA, 1% NP-40, 10% glycerol, and protease inhibiting agent. Then, the supernatant was dissolved in SDS sample buffer, followed by separation using SDS-PAGE. For immunoblotting of endogenous KRS, anti-KRS antibody was used. Antibodies against Hsp90, syntenin-1, GFP, myc, caspase-3, -6, -8, -9, while syntenin-1 were purchased from Santa Cruz, and antibodies against alix were purchased from Cell Signaling. The anti-KRS antibody was manufactured by ordinary procedures in which KRS protein (Genbank Accession No. NP_005539.1) represented by SEQ ID NO: 2 was injected into New Zealand white rabbits to induce immune response and their antibodies were obtained.

Molecule: ▴N12: KRS fragment 13-597 a.a., the peptide of SEQ ID NO: 1, first 12 N-terminal amino acids deleted
secretion of IL-6 from macrophages (RAW264.7 cells [1]): induced | secretion of MMP9 from macrophages (RAW264.7 cells [1]): induced | secretion of TNF-alpha from macrophages (luminex) (RAW264.7 cells [1]): induced | secretion of mCRG-2 from macrophages (RAW264.7 cells [1]): induced | migration of macrophages (wound-healing assay) (RAW264.7 cells [2]): increased | TNF-alpha secretion from macrophages (RAW264.7 cells [3]): increasing TNF-alpha secretion | cytokine activity (Cytokine activity of KRS): identical

BiFC fluorescence (KRS-syntenin binding) (KRS and syntenin-1 [5]): not observed
Molecule: Z-VAD-IETD [caspase-8 inhibitor]
KRS secretion after caspase inhibitor treatment (HCT116 cells [4]): inhibited KRS secretion | binding between KRS and syntenin increased by starvation (KRS and syntenin-1 [6]; serum starvation medium with or without caspase-8 inhibiting agent, IP of syntenin-1, anti-KRS western blot): reduced

Molecule: Z-VAD-VEID [caspase-6 inhibitor]
KRS secretion after caspase inhibitor treatment (HCT116 cells [4]): only caspase-8 inhibitor inhibited KRS secretion

Molecule: si-KRS: si-RNA against KRS from Invitrogen: GGGAAGACCCAUACCCACACAAGUU, AACUUGUGUGGGUAUGGGUCUUCCC (chemistry not given here)
KRS proteins existing in the exosome (HCT116 cells [7]; exosomes purified from si-RNA treated cells, 48 hr then serum starvation 12 hr, vs si-con): reduced

BiFC fluorescence (KRS-syntenin binding) (KRS and syntenin-1 [5]): not observed
Molecule: D12A mutant: variant in which Asp, 12th amino acid of KRS WT, is replaced with Ala; not cleaved by caspase-8
cleavage of KRS variant compared with WT (HCT116 cells [8]; GFP-KRS variant overexpressed in HCT116 cells, serum starvation 1 hr): reduced | secretion of KRS variant compared with WT (HCT116 cells [4]): reduced | exosome secretion of KRS variant compared with WT (HCT116 cells [7]): significantly reduced | binding of KRS variant with syntenin-1 compared with WT (KRS and syntenin-1 [6]): less

Molecule: COC(=O)C[C@H](NC(=O)[C@H](C)NC(=O)[C@@H](NC(=O)OCc1ccccc1)C(C)C)C(=O)CF [pan-caspase inhibitor, Z-VAD-FMK] (Cbz-Val-Ala-Asp(OMe)-CH2F)
KRS cleavage after caspase inhibitor treatment (HCT116 cells [8]; GFP-KRS overexpressed cells, serum starvation media, Z-VAD-FMK 14 uM, 1 hr): reduced | KRS secretion after caspase inhibitor treatment (HCT116 cells [4]): reduced

Molecule: KRS WT: full-length human lysyl tRNA synthetase (1-597), SEQ ID NO: 2
secretion of IL-6 from macrophages (RAW264.7 cells [1]): induced | secretion of MMP9 from macrophages (RAW264.7 cells [1]): induced | secretion of TNF-alpha from macrophages (luminex) (RAW264.7 cells [1]): induced | secretion of mCRG-2 from macrophages (RAW264.7 cells [1]): induced | migration of macrophages (wound-healing assay) (RAW264.7 cells [2]): increased | TNF-alpha secretion from macrophages (RAW264.7 cells [3]): increasing TNF-alpha secretion | cytokine activity (Cytokine activity of KRS): identical

Molecule: ▴c5: deletion mutant KRS with truncated C-terminus, 1-592 a.a of SEQ ID NO: 2
secretion of KRS variant compared with WT (HCT116 cells [4]): less | exosome secretion of KRS variant compared with WT (HCT116 cells [7]): reduced | binding of KRS variant with syntenin-1 compared with WT (KRS and syntenin-1 [6]): significantly deteriorated

Molecule: Z-VAD-DQMD [caspase-3 inhibitor]
KRS secretion after caspase inhibitor treatment (HCT116 cells [4]): only caspase-8 inhibitor inhibited KRS secretion

— US20170073659A1, “NOVEL LYSYL TRNA SYNTHETASE FRAGMENT AND MICROVESICLES COMPRISING SAME” (Medicinal Bioconvergence Research Center, priority 2014, published 2017)
